What was measured:
[1] = tested on: A549 lung adenocarcinoma cells; test: A549 proliferation assay (Cell Titer Glo); type: cell-based; conditions: Homo sapiens, 7 days with compound, cell viability by Cell Titer Glo (ATP)
Procedure: A549 lung adenocarcinoma cells (American Type Culture Collection) were maintained in DMEM growth media (Life Technologies) supplemented with 10% v/v heat inactivated fetal bovine serum (Sigma) and cultured at 37° C., 5% CO2. Exponentially growing A549 cells were plated in 96-well black tissue culture treated plates (Corning) at a density of […] in a volume of 100 μl culture media and allowed to adhere overnight at 37° C., 5% CO2. The following day, compound plates were prepared by making nine-point 3.3-fold dilutions in DMSO with a top concentration of 10 mM. Compounds were further diluted in culture media and 11 μl was added to the cells (final top assay concentration was 10 μM and DMSO was 0.2%). Cells were incubated with compound at 37° C., 5% CO2 for 7 days with media and compound replacement on day 4. Cell viability was assayed on Day 7 by adding 100 μl Cell Titer Glo (Promega) reagent to the plate to measure the amount of ATP present in the cells. Luminescence was read using the Envision 2104 Multilabel Reader (Perkin Elmer). The 50% inhibitory concentration (IC50) was determined using a 4-parameter fit model normalized to the DMSO control in dose response.

[2] = biological target: PRMT5/MEP50 protein complex (Homo sapiens (Human), UniProt O14744); test: PRMT5 biochemical assay (3H-SAM methylation of H4(1-21) peptide, filter plate scintillation); conditions: 10 nM PRMT5/MEP50 complex, 200 nM H4(1-21) peptide, 1 uM SAM, 25 minute incubation at room temperature
Sequence of PRMT5/MEP50 protein complex (O14744 other isoform, or with tags, fused parts or gaps): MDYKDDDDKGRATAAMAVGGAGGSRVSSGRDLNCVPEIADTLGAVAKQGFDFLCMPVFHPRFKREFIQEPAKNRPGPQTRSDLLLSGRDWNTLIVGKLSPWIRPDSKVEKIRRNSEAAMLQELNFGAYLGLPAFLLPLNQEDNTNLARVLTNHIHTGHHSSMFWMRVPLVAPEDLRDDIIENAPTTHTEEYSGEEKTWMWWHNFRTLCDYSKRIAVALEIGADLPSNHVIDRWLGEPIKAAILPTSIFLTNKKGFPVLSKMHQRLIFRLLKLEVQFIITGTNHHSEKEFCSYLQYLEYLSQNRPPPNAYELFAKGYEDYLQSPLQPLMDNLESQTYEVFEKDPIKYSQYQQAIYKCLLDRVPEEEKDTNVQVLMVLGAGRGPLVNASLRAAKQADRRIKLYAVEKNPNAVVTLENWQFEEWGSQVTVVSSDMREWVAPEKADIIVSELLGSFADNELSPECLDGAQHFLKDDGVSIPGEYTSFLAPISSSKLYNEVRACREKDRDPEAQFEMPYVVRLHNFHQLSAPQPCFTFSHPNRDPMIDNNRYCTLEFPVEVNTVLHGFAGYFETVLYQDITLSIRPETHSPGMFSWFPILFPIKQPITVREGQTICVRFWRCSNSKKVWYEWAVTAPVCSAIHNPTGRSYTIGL
Sequence of PRMT5/MEP50 protein complex (Q9BQA1 whole entry partner): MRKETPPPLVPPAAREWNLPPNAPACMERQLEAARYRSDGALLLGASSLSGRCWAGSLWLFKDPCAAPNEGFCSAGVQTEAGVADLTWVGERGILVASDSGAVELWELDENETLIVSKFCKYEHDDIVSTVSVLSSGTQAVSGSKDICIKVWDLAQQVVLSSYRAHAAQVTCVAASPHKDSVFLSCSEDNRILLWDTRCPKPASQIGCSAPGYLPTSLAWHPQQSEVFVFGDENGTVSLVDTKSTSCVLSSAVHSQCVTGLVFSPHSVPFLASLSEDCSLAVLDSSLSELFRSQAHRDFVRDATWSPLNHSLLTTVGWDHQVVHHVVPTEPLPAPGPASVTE
How it was run: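 Scintillation read-out: after 25 min at room temperature and a TCA stop, tritiated H4(1-21) product (peptide 200 nM) is caught on a filter plate. Reaction holds 10 nM PRMT5/MEP50 and 1 uM 3H-labelled plus cold SAM in 50 mM Tris pH 8.5 with MgCl2, EDTA and TCEP. IC50 values come from a 4-parameter dose-response fit.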

SMILES | IC50 ([1]; A549, 168 h) [nM] | IC50 [2] [nM] | IC50 ([1]; 168 h) [nM]
Nc1ncnc2c1c(Cl)cn2[C@@H]1C[C@H](Oc2cc(F)c(F)c3c2CNCC3)[C@@H](O)[C@H]1O [Example 128, (1S,2S,3R,5S)-3-(4-amino-5-chloro-7H-pyrrolo[2,3-d]pyrimidin-7-yl)-5-((5,6-difluoro-1,2,3,4-tetrahydroisoquinolin-8-yl)oxy)cyclopentane-1,2-diol] | 597 | 1 | –
Cc1ncnc2c1ccn2[C@@H]1C[C@H]([C@H](O)c2ccc(F)c(F)c2)[C@@H](O)[C@H]1O [Example 3, (1S,2R,3R,5R)-3-[(S)-(3,4-difluorophenyl) (hydroxy)methyl]-5-(4-methyl-7H-pyrrolo[2,3-d]pyrimidin-7-yl)cyclopentane-1,2-diol] | – | 32 | 1100
Cc1nc(N)nc2c1ccn2[C@@H]1C[C@H]([C@H](O)c2ccc(F)c(F)c2)[C@@H](O)[C@H]1O [Example 48, (1R,2S,3R,5R)-3-(2-amino-4-methyl-7H-pyrrolo[2,3-d]pyrimidin-7-yl)-5-[(S)-(3,4-difluorophenyl)(hydroxy)methyl]cyclopentane-1,2-diol] | 192 | 5 | –
Nc1ncnc2c1ccn2[C@@H]1C[C@H](Oc2ccc(F)c3c2CNCC3)[C@@H](O)[C@H]1O [Example 180, (1S,2S,3R,5S)-3-(4-amino-7H-pyrrolo[2,3-d]pyrimidin-7-yl)-5-((5-fluoro-1,2,3,4-tetrahydroisoquinolin-8-yl)oxy)cyclopentane-1,2-diol] | 159 | 3 | –
Cc1ncnc2c1ccn2[C@@H]1C[C@H](Oc2cccc3c2CC(N)CO3)[C@@H](O)[C@H]1O (single isomer, unassigned) [Example 188] | 6470 | 4 | –
Cc1ncnc2c1ccn2[C@@H]1C[C@H]([C@H](O)c2ccc(F)c(Cl)c2)[C@@H](O)[C@H]1O [Example 5, (1S,2R,3R,5R)-3-[(S)-(3-chloro-4-fluorophenyl) (hydroxy)methyl]-5-(4-methyl-7H-pyrrolo[2,3-d]pyrimidin-7-yl)cyclopentane-1,2-diol] | – | 25 | 932
COc1cc(O[C@H]2C[C@@H](n3ccc4c(C)ncnc43)[C@H](O)[C@@H]2O)c2c(c1F)CCNC2 [Example 198, (1S,2S,3S,5R)-3-((5-fluoro-6-methoxy-1,2,3,4-tetrahydroisoquinolin-8-yl)oxy)-5-(4-methyl-7H-pyrrolo[2,3-d]pyrimidin-7-yl)cyclopentane-1,2-diol] | 3820 | 1 | –
Cc1ncnc2c1ccn2[C@@H]1C[C@H](Oc2cc(F)cc3c2CNCCO3)[C@@H](O)[C@H]1O [Example 203, (1S,2S,3S,5R)-3-((8-fluoro-2,3,4,5-tetrahydrobenzo[f][1,4]oxazepin-6-yl)oxy)-5-(4-methyl-7H-pyrrolo[2,3-d]pyrimidin-7-yl)cyclopentane-1,2-diol] | 677 | 1 | –
Cc1ncnc2c1ccn2[C@@H]1C[C@H](Oc2ccc(F)cc2[C@H](C)N)[C@@H](O)[C@H]1O [Example 138, (1S,2S,3S,5R)-3-(2-((S)-1-aminoethyl)-4-fluorophenoxy)-5-(4-methyl-7H-pyrrolo[2,3-d]pyrimidin-7-yl)cyclopentane-1,2-diol] | 1480 | 2 | –
Nc1ncnc2c1c(F)cn2[C@@H]1C[C@H](Oc2cc(C(F)F)c(F)c3c2CNCC3)[C@@H](O)[C@H]1O [Example 196, (1S,2S,3R,5S)-3-(4-amino-5-fluoro-7H-pyrrolo[2,3-d]pyrimidin-7-yl)-5-((6-(difluoromethyl)-5-fluoro-1,2,3,4-tetrahydroisoquinolin-8-yl)oxy)cyclopentane-1,2-diol] | 3 | 1 | –
Cc1ncnc2c1ccn2[C@@H]1C[C@H](Oc2nc(C(F)F)cc3c2CNCC3)[C@@H](O)[C@H]1O [Example 194, (1S,2S,3S,5R)-3-((3-(difluoromethyl)-5,6,7,8-tetrahydro-2,7-naphthyridin-1-yl)oxy)-5-(4-methyl-7H-pyrrolo[2,3-d]pyrimidin-7-yl)cyclopentane-1,2-diol] | 111 | 1 | –
Nc1ncnc2c1c(F)cn2[C@@H]1C[C@H](Oc2cc(Br)c(F)c3c2CNCC3)[C@@H](O)[C@H]1O [Example 109, (1S,2S,3R,5S)-3-(4-amino-5-fluoro-7H-pyrrolo[2,3-d]pyrimidin-7-yl)-5-((6-bromo-5-fluoro-1,2,3,4-tetrahydroisoquinolin-8-yl)oxy)cyclopentane-1,2-diol] | 67 | 1 | –
Cc1cc2c(c(O[C@H]3C[C@@H](n4cc(Cl)c5c(N)ncnc54)[C@H](O)[C@@H]3O)c1)CNCC2 [Example 129, (1S,2S,3R,5S)-3-(4-amino-5-chloro-7H-pyrrolo[2,3-d]pyrimidin-7-yl)-5-((6-methyl-1,2,3,4-tetrahydroisoquinolin-8-yl)oxy)cyclopentane-1,2-diol] | 1040 | 1 | –
Nc1ncnc2c1c(F)cn2[C@@H]1C[C@H](Oc2cccc3c2CNCC3)[C@@H](O)[C@H]1O [Example 99, (1S,2S,3R,5S)-3-(4-amino-5-fluoro-7H-pyrrolo[2,3-d]pyrimidin-7-yl)-5-((1,2,3,4-tetrahydroisoquinolin-8-yl)oxy)cyclopentane-1,2-diol] | 728 | 2 | –
Cc1ncnc2c1ccn2[C@@H]1C[C@H](Oc2ccc(Cl)cc2CN)[C@@H](O)[C@H]1O [Example 159, (1S,2S,3S,5R)-3-(2-(aminomethyl)-4-chlorophenoxy)-5-(4-methyl-7H-pyrrolo[2,3-d]pyrimidin-7-yl)cyclopentane-1,2-diol] | 5200 | 5 | –
Cc1ncnc2c1ccn2[C@@H]1C[C@H](Oc2cc(-c3cn[nH]c3)c(F)c3c2CNCC3)[C@@H](O)[C@H]1O [Example 166, (1S,2S,3S,5R)-3-((5-fluoro-6-(1H-pyrazol-4-yl)-1,2,3,4-tetrahydroisoquinolin-8-yl)oxy)-5-(4-methyl-7H-pyrrolo[2,3-d]pyrimidin-7-yl)cyclopentane-1,2-diol] | 39 | 3 | –
Cc1ncnc2c1ccn2[C@@H]1C[C@H]([C@H](O)c2cc(F)c(F)c(F)c2)[C@@H](O)[C@H]1O [Example 13, (1S,2R,3R,5R)-3-[(S)-hydroxy(3,4,5-trifluorophenyl)methyl]-5-(4-methyl-7H-pyrrolo[2,3-d]pyrimidin-7-yl)cyclopentane-1,2-diol] | – | 16 | 971
Cc1cn([C@@H]2C[C@H](Oc3ccc(F)c4c3CNCC4)[C@@H](O)[C@H]2O)c2ncnc(N)c12 [Example 121, (1S,2S,3R,5S)-3-(4-amino-5-methyl-7H-pyrrolo[2,3-d]pyrimidin-7-yl)-5-((5-fluoro-1,2,3,4-tetrahydroisoquinolin-8-yl)oxy)cyclopentane-1,2-diol] | 938 | 1 | –
Cc1ncnc2c1ccn2[C@@H]1C[C@H](Oc2cc(F)cc3c2CNCC3)[C@@H](O)[C@H]1O [Example 85, (1S,2S,3S,5R)-3-((6-fluoro-1,2,3,4-tetrahydroisoquinolin-8-yl)oxy)-5-(4-methyl-7H-pyrrolo[2,3-d]pyrimidin-7-yl)cyclopentane-1,2-diol] | 920 | 2 | –
Cc1ncnc2c1ccn2[C@@H]1C[C@H]([C@H](O)c2ccc(Cl)c(F)c2)[C@@H](O)[C@H]1O [Example 160, (1S,2R,3R,5R)-3-((S)-(4-chloro-3-fluorophenyl)(hydroxy)methyl)-5-(4-methyl-7H-pyrrolo[2,3-d]pyrimidin-7-yl)cyclopentane-1,2-diol] | 405 | 9 | –
Cc1ncnc2c1ccn2[C@@H]1C[C@H](Oc2cccc3c2CNCCO3)[C@@H](O)[C@H]1O [Example 164, (1S,2S,3R,5S)-3-(4-methyl-7H-pyrrolo[2,3-d]pyrimidin-7-yl)-5-((2,3,4,5-tetrahydrobenzo[f][1,4]oxazepin-6-yl)oxy)cyclopentane-1,2-diol] | 3860 | 4 | –
Nc1ncnc2c1c(F)cn2[C@@H]1C[C@H](Oc2cc(Cl)c(F)c3c2CNCC3)[C@@H](O)[C@H]1O [Example 108, (1S,2S,3R,5S)-3-(4-amino-5-fluoro-7H-pyrrolo[2,3-d]pyrimidin-7-yl)-5-((6-chloro-5-fluoro-1,2,3,4-tetrahydroisoquinolin-8-yl)oxy)cyclopentane-1,2-diol] | 163 | 1 | –
Nc1ncnc2c1c(F)cn2[C@@H]1C[C@H](Oc2cc(Cl)cc3c2CNCC3)[C@@H](O)[C@H]1O [Example 102, (1S,2S,3R,5S)-3-(4-amino-5-fluoro-7H-pyrrolo[2,3-d]pyrimidin-7-yl)-5-((6-chloro-1,2,3,4-tetrahydroisoquinolin-8-yl)oxy)cyclopentane-1,2-diol] | 192 | 1 | –
Cc1ncnc2c1c(F)cn2[C@@H]1C[C@H](Oc2cc(C#N)cc3c2CNCC3)[C@@H](O)[C@H]1O [Example 119, 8-(((1S,2S,3S,4R)-4-(5-fluoro-4-methyl-7H-pyrrolo[2,3-d]pyrimidin-7-yl)-2,3-dihydroxycyclopentyl)oxy)-1,2,3,4-tetrahydroisoquinoline-6-carbonitrile] | 556 | 1 | –
